SMILES strings stand for the structures.

The target in test [1] is M3 (muscarinic acetylcholine receptor type 3) (Homo sapiens, UniProt P20309). As to the kind of experiment: NIMH PDSP secondary binding assay.
Test [2] concerns the target 5HT1B (serotonin receptor subtype 1B) (Homo sapiens, UniProt P28222). As to the kind of experiment: NIMH PDSP secondary binding assay.
In test [3] the target is pure guinea pig sigma-1 receptor (Cavia porcellus, UniProt Q60492). Briefly: Competitive displacement of [3H]-. Format: binding.
pure guinea pig sigma-1 receptor, sequence (Q60492 whole entry): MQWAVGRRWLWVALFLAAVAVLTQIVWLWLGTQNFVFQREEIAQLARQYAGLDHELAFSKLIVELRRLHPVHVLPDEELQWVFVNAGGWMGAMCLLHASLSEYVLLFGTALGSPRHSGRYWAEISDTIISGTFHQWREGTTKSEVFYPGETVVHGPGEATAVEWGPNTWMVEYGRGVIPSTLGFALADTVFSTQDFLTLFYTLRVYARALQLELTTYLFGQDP
Test [4] has as its target M2 (muscarinic acetylcholine receptor type 2) (Homo sapiens, UniProt P08172). As to the kind of experiment: NIMH PDSP secondary binding assay.
Test [5] concerns the target H2 (histamine receptor type 2) (Homo sapiens, UniProt P25021). As to the kind of experiment: NIMH PDSP secondary binding assay.
For test [6], the target named is T1, α-1D (α-adrenergic receptor subtype 1D) (Homo sapiens, UniProt P25100).
T1 sequence (P25100 1-572): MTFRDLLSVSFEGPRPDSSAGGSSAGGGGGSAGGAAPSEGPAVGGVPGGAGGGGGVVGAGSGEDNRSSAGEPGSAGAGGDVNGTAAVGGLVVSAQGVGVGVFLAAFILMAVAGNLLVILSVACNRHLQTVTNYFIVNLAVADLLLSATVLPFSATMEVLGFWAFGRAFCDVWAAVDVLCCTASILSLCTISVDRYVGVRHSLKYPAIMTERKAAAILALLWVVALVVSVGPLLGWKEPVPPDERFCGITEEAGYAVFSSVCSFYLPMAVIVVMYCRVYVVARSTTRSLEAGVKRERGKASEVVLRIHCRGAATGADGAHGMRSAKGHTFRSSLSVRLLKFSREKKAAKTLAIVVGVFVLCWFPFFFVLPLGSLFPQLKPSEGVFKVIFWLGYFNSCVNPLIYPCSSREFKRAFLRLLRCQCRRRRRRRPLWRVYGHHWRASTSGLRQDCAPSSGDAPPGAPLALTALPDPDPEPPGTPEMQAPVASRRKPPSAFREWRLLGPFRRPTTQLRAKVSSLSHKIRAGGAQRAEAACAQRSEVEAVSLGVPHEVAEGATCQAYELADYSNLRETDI
As to the kind of experiment: NIMH PDSP secondary binding assay.

The target of test [7] is M4 (muscarinic acetylcholine receptor type 4) (Homo sapiens, UniProt P08173). As to the kind of experiment: NIMH PDSP secondary binding assay.
M4 (muscarinic acetylcholine receptor type 4), sequence (P08173 whole entry): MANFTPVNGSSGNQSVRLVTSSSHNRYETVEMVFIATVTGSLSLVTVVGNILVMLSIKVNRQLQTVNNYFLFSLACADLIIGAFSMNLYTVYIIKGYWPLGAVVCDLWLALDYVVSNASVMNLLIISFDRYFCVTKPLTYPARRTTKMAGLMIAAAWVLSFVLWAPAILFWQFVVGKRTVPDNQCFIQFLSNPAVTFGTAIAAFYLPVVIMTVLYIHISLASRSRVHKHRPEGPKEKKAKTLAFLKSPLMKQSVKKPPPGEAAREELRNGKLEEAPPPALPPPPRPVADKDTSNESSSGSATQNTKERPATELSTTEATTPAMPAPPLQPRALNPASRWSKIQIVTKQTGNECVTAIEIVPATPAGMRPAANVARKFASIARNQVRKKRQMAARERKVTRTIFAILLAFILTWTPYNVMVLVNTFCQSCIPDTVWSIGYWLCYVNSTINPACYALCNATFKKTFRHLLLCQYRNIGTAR
Another test concerns the target Kv1.4 potassium channel (Rattus norvegicus, UniProt P15385+Q9R0C9). As to the kind of experiment: Whole cell patch clamp, HEK-293 cells co-expressing Kv1.4 and sigma-1 receptor. Format: cell-based.
The target in the next test is T2, Sig-2R, sigma-2 receptor (Rattus norvegicus, UniProt Q5U3Y7).
T2 sequence (Q5U3Y7 1-176): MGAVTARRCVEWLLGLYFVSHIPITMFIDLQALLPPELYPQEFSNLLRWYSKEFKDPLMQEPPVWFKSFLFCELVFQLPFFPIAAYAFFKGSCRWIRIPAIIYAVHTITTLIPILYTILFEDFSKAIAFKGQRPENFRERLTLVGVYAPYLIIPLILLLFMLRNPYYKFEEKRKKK
As to the kind of experiment: NIMH PDSP secondary binding assay.

Test [8] addresses D4 (dopamine receptor type 4) (Homo sapiens, UniProt P21917). Briefly: NIMH PDSP secondary binding assay.
For test [9], the target named is sigma-1 receptor (sigma-1 sites) (Cavia porcellus, UniProt Q60492). As to the kind of experiment: Competitive displacement of [3H]-. Format: binding, guinea pig.
sigma-1 receptor (sigma-1 sites), sequence (Q60492 whole entry): as the sequence (Q60492 whole entry) above

5HT1B (serotonin receptor subtype 1B), sequence (P28222 whole entry, species assumed): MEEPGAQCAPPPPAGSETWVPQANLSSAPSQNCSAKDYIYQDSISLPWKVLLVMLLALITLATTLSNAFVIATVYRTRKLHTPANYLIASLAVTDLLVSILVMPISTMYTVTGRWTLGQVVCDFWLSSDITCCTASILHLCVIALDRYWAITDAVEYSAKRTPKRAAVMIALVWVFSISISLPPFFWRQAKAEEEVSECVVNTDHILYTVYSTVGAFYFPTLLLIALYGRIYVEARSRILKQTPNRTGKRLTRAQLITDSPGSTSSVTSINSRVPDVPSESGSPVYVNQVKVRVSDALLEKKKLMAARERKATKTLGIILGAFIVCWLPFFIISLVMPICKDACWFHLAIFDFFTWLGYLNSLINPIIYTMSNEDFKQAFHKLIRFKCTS
H2 (histamine receptor type 2), sequence (P25021 whole entry): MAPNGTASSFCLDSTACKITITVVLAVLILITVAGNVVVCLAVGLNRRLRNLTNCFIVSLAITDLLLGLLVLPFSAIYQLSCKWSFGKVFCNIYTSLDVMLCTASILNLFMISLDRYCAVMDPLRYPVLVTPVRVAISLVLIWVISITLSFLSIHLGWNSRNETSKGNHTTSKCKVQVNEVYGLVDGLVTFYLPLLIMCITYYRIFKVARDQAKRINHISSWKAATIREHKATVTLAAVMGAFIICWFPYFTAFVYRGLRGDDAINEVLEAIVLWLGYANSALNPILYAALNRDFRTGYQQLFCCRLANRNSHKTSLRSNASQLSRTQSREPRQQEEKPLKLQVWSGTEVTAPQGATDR
M2 (muscarinic acetylcholine receptor type 2), sequence (P08172 whole entry): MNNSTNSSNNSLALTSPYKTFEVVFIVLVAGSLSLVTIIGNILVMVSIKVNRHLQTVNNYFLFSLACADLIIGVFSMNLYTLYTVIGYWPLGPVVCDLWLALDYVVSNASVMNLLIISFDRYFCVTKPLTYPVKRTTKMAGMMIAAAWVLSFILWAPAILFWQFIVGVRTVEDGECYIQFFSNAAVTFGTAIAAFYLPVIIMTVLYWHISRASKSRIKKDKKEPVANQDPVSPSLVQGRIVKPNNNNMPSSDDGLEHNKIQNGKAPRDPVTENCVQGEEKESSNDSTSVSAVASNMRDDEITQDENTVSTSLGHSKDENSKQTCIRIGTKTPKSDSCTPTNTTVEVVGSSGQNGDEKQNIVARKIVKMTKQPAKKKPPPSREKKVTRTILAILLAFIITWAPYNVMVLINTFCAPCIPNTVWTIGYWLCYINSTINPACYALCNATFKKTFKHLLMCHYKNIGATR
M3 (muscarinic acetylcholine receptor type 3), sequence (P20309 whole entry): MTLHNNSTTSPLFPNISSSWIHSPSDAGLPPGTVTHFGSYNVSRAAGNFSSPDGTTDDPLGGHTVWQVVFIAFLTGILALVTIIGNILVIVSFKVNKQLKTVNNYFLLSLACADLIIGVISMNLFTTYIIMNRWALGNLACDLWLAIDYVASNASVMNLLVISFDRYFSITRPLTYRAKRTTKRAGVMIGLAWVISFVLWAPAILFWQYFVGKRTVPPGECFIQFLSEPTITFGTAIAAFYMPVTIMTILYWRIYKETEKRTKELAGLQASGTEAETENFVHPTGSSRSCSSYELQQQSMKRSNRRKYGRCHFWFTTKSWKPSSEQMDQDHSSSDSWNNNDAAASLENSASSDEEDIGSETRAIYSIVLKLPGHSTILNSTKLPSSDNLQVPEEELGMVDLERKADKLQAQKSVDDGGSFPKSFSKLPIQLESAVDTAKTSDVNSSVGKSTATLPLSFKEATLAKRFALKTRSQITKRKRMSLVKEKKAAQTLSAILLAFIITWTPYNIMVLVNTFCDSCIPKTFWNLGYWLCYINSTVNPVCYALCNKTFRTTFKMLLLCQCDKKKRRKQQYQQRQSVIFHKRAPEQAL
D4 (dopamine receptor type 4), sequence (P21917 whole entry): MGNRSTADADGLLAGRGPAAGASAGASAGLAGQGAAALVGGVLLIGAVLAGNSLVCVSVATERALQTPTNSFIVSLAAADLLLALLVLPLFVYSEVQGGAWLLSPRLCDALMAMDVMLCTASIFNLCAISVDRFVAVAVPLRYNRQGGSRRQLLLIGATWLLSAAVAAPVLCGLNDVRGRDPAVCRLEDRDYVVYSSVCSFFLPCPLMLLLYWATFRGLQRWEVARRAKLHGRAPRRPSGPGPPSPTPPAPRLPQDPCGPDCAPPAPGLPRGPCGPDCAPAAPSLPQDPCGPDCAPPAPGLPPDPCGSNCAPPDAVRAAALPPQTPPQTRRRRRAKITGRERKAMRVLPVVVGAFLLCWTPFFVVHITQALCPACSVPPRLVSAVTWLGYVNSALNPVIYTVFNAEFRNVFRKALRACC
Kv1.4 potassium channel, sequence (P15385 whole entry): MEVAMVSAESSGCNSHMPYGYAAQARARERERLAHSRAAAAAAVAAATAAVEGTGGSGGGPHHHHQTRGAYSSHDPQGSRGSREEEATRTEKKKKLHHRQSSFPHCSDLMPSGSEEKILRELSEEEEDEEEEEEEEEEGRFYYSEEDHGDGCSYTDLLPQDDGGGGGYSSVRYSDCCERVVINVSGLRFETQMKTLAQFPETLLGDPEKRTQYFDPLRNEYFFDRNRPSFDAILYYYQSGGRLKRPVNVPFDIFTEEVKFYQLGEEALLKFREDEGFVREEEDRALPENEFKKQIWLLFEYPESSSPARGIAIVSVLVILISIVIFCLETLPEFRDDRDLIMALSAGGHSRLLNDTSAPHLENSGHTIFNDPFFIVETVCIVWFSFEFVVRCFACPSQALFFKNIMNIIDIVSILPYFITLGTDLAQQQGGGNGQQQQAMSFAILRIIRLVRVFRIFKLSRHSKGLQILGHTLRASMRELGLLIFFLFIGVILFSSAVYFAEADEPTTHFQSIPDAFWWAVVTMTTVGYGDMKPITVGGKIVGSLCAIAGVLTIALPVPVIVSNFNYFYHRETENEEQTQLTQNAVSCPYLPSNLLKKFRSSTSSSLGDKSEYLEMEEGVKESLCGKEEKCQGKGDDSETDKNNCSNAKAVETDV
Kv1.4 potassium channel, sequence (Q9R0C9 whole entry): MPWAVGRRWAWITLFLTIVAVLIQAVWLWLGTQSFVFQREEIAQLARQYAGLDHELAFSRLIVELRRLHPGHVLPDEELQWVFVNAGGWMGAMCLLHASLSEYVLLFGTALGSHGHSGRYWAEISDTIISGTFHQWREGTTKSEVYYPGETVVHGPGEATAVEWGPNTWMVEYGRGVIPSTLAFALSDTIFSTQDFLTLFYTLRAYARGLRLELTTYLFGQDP

On to `CCCCCCCNCCCc1ccccc1` [2a, N-(3-Phenylpropyl)heptan-1-amine], for which the Ki in test [1] is above 10 µM; in test [2] it was above 10 µM; in test [3], 0.018 ± 0.014 µM; in test [4], above 10 µM; in test [5], above 10 µM; in test [6], above 10 µM. Also, the Ki is above 10 µM in test [7] and 0.25 µM at Sig-2R, sigma-2 receptor. The IC50 against Kv1.4 potassium channel came out at 10 µM.

In the case of `CCCCCCCCCCCCNCCCc1ccccc1` [3a, N-(3-Phenylpropyl)dodecan-1-amine], the Ki in [1], in test [2], in [4], in [8], in test [5] and in [6] was above 10 µM throughout. The Ki in [7] was above 10 µM; on Sig-2R, sigma-2 receptor, 3.6 µM.

Consider `CCCCCCCCCCCCNCCCc1ccc([N+](=O)[O-])cc1` [3b, N-(3-(4-Nitrophenyl)propyl)dodecan-1-amine], for which the Ki in test [2] is above 10 µM; in [6], 9 µM; in test [9], 5.1 ± 0.2 µM; on Sig-2R, sigma-2 receptor, 0.27 µM.

The record behind these values is PMC3234165 (Biochemistry, 2011).
